Patent publication US8980934B2, “Kinase inhibitors and method of treating cancer with same” (University Health Network, priority 2012, dated 2015)

Tests used:
Format in all cases: cell-based
[1] = system: colon 12 tumor initiating cells; experiment: Colon tumor-initiating cell growth inhibition, Alamar Blue assay; conditions: 216 h, colon TICs, 9 days culture, read-out: Tumor Initiating Cell Line GI50 Range colon 12
Excerpt: (§1) Non-tissue or tissure cultured treated T-75 flask and 96-well plates were purchased from VWR. Vitamin B-27 supplement, MEM NEAA (minimum essential medium non essential amino acids), sodium pyruvate, L-glutamine, N2 supplement, penicillin-streptomycin and fungizone/amphotericin B were obtained from Invitrogen. Lipid mixture, heparin and EGF were purchased from Sigma; bFGF from BD Biosciences. Colon tumor initiating cells (TICs) were routinely maintained using non-tissue cultured treated T-75 flasks in DMEM:F12 medium containing 0.2XB-27 supplement, 4 ug/ml heparin, 1XMEM NEAA, 1Xsodium pyruvate, 1 mM glutamine, 10 pg/ul bFGF, 20 pg/ul EGF, 1×N2 supplement, lipid mixture, penicillin-streptomycin and fungizone/amphotericin B. Ovarian TICs were routinely maintained using tissue cultured treated T-75 flasks in DMEM:F12 medium containing 1XB-27 supplement, 4 ug/ml heparin, 20 pg/ul bFGF, 20 pg/ul EGF and penicillin-streptomycin.
(§2) Compounds described herein were dissolved in DMSO and further diluted in cell culture medium for GI50 determination. Colon TICs were trypsinized and seeded into non-tissue cultured treated 96-well plates with 4,000 cells/well. After 24 h, compound was added into the cell culture at different concentrations, and the final concentration of DMSO was adjusted to 0.1%. Cells were then cultured at 37° C. for 9 days. Ovarian TICs were trypsinized and seeded into tissue cultured treated 96-well plates with 1,000 cells/well. After 24 h, compound was added into the cell culture at different concentrations, and the final concentration of DMSO was adjusted to 0.1%. Cells were then cultured at 37° C. for 6 days. Cell viability was assessed by Alamar Blue assay: 10 ul of Alamar Blue was added into each well. After 4 hours incubation at 37° C., fluorescence was recorded at excitation 544 and emission 590. GI50 (Growth inhibition) was calculated using GraphPad Prism 4.0 software. Cell growth inhibition data for compounds described herein is tabulated below (Table 2). The GI50 ranges are indicated as “A,” and “B”, for values less than or equal to 0.1 μM: those greater than 0.1 μM and less than or equal to 0.5 μM, respectively.

[2] = system: MDA-MB-231 breast cancer cells; experiment: Cancer cell growth inhibition, Sulforhodamine B assay; conditions: Homo sapiens, 120 h; MDA-MB-231, 5 days culture, SRB; read-out: Cancer Cell Line GI50 Range MDA-MB-231
Protocol: (§3) Breast cancer cells (MDA-MB-231), colon cancer cells (HCT116) and ovarian cancer cells (PA-1) were seeded (1000 to 4000 in 80 μl per well depending on the cell growth rate) into 96 well plates 24 hours before compound overlay. Compounds were prepared as 10 mM stock solutions in 100% DMSO which were diluted with DMEM (Dulbecco's Modified Eagle's Medium) cell growth Medium (Invitrogen, Burlington, ON, Canada) containing 10% FBS (Fetal Bovine Serum) to concentrations ranging from 50 nM to 250 μM. Aliquots (20 μl) from each concentration were overlaid to 80 μl of the pre-seeded cells in the 96 well plates to make final concentrations of 10 nM to 50 μM. The cells were cultured for 5 days before the Sulforhodamine B assay (SRB) was performed to determine the compound's cell growth inhibition activity.
(§4) Sulforhodamine B (purchased from Sigma, Oakville, ON, Canada) is a water-soluble dye that binds to the basic amino acids of the cellular proteins. Thus, colorimetric measurement of the bound dye provides an estimate of the total protein mass that is related to the cell number. the cells are fixed in situ by gently aspirating off the culture media and adding 50 μl ice cold 10% Trichloroacetic Acid (TCA) per well and incubate at 4° C. for 30-60 min. The plates are washed with H2O five times and allowed to air dry for 5 min. Addition of 50 μl 0.4% (w/v) SRB solution in 1% (v/v) acetic acid to each well and incubatation for 30 min at RT completes the staining reaction. Following staining, plates are washed four times with 1% acetic acid to remove unbound dye and then allowed to air dry for 5 min. The stain is solubilized with 100 μl of 10 mM Tris pH 10.5 per well. Absorbance is read at 570 nm.
(§5) The percentage (%) of relative growth inhibition was calculated by comparing to DMSO treated only cells (100%). GI50's were determined for compounds with cytotoxic activity. The GI50 was calculated using GraphPad PRISM software (GraphPad Software, Inc., San Diego, Calif., USA). GI50 (growth inhibition) is the compound concentration that causes 50% inhibition of cell growth.
(§6) In Table 1 below, GI50 value ranges for several compound examples against breast cancer cell lines (MDA-MB-231), colon cancer cell lines (HCT116) and ovarian cancer cell lines (PA-1) are given. […] The GI50 ranges are indicated as “A,” “B,” and “C,” for values less than or equal to 0.1 μM; those greater than 0.1 μM and less than or equal to 0.5 μM; and those greater than 0.5 μM, respectively.

[3] = system: HCT116 colon cancer cells; experiment: as above; conditions: Homo sapiens, HCT-116, 120 h; HCT116, 5 days culture, SRB; read-out: Cancer Cell Line GI50 Range HCT116
Protocol: as §3, §4, §5, §6

[4] = system: PA-1 ovarian cancer cells; experiment: as above; conditions: 120 h; PA-1, 5 days culture, SRB; read-out: Cancer Cell Line GI50 Range PA-1
Protocol: as §3, §4, §5, §6

[5] = system: ovarian 2393A tumor initiating cells; experiment: Ovarian tumor-initiating cell growth inhibition, Alamar Blue assay; conditions: 144 h, ovarian TICs, 6 days culture, read-out: Tumor Initiating Cell Line GI50 Range ovarian 2393A
Excerpt: as §1, §2

| SMILES | GI50 [1] [nM] | GI50 [2] [nM] | GI50 [3] [nM] | GI50 [4] [nM] | GI50 [5] [nM] |
| --- | --- | --- | --- | --- | --- |
| O=C(NC(c1ccccn1)C1CC1)c1ccc2[nH]nc(-c3ccc(N4CCC5(CC4)COC5)cc3)c2c1 (stereo not drawn) [Example A15, 3-(4-(2-Oxa-7-azaspiro[3.5]nonan-7-yl)phenyl)-N-(cyclopropyl(pyridin-2-yl)methyl)-1H-indazole-5-carboxamide] | 100 to 500 | 100 to 500 | ≤ 100 | ≤ 100 | 100 to 500 |
| O=C(N[C@@H](c1ccccn1)C1CC1)c1ccc2[nH]nc(-c3ccc(N4CC5(COC5)C4)cc3)c2c1 [Example A6, (R)-3-(4-(2-oxa-6-azaspiro[3.3]heptan-6-yl)phenyl)-N-(cyclopropyl(pyridin-2-yl)methyl)-1H-indazole-5-carboxamide] | 100 to 500 | 100 to 500 | ≤ 100 | ≤ 100 | 100 to 500 |
| O=C(NC(c1ccccn1)C1CC1)c1ccc2[nH]nc(-c3ccc(N4CC5(COC5)C4)cc3)c2c1 (stereo not drawn) [Example A4, 3-(4-(2-Oxa-6-azaspiro[3.3]heptan-6-yl)phenyl)-N-(cyclopropyl(pyridin-2-yl)methyl)-1H-indazole-5-carboxamide] | 100 to 500 | ≤ 100 | ≤ 100 | ≤ 100 | ≤ 100 |
| O=C(NC(c1ncccn1)C1CCCC1)c1ccc2[nH]nc(-c3ccc(N4CC5(COC5)C4)cc3)c2c1 (stereo not drawn) [Example A24, 3-(4-(2-oxa-6-azaspiro[3.3]heptan-6-yl)phenyl)-N-(cyclopentyl(pyrimidin-2-yl)methyl)-1H-indazole-5-carboxamide] | ≤ 100 | ≤ 100 | ≤ 100 | ≤ 100 | ≤ 100 |
| CC(C)[C@H](NC(=O)c1ccc2[nH]nc(-c3ccc(N4CC5(COC5)C4)cc3)c2c1)c1ccccc1Cl [Example A12, 3-(4-(2-Oxa-6-azaspiro[3.3]heptan-6-yl)phenyl)-N-((S)-1-(2-chlorophenyl)-2-methylpropyl)-1H-indazole-5-carboxamide] | ≤ 100 | ≤ 100 | ≤ 100 | ≤ 100 | ≤ 100 |
| O=C(N[C@H](c1ccccn1)C1CCCC1)c1ccc2[nH]nc(-c3ccc(N4CC5(COC5)C4)cc3)c2c1 [Example A2, (S)-3-(4-(2-oxa-6-azaspiro[3.3]heptan-6-yl)phenyl)-N-(cyclopentyl(pyridin-2-yl)methyl)-1H-indazole-5-carboxamide] | ≤ 100 | ≤ 100 | ≤ 100 | ≤ 100 | ≤ 100 |
| O=C(Nc1ccc2[nH]nc(-c3ccc(N4CC5(COC5)C4)cc3)c2c1)C(c1ccsc1)N1CCCC1 (stereo not drawn) [Example A1, N-(3-(4-(2-oxa-6-azaspiro[3.3]heptan-6-yl)phenyl)-1H-indazol-5-yl)-2-(pyrrolidin-1-yl)-2-(thiophen-3-yl)acetamide] | ≤ 100 | ≤ 100 | ≤ 100 | ≤ 100 | ≤ 100 |
| CC(C)[C@H](NC(=O)c1ccc2[nH]nc(-c3ccc(N4CC5(CCO5)C4)cc3)c2c1)c1ccccc1Cl [Example A23, (S)-3-(4-(1-Oxa-6-azaspiro[3.3]heptan-6-yl)phenyl)-N-(1-(2-chlorophenyl)-2-methylpropyl)-1H-indazole-5-carboxamide] | ≤ 100 | ≤ 100 | ≤ 100 | ≤ 100 | ≤ 100 |

Further lines, results first:

| GI50 [1] [nM] | GI50 [2] [nM] | GI50 [3] [nM] | GI50 [4] [nM] | GI50 [5] [nM] | SMILES |
| --- | --- | --- | --- | --- | --- |
| ≤ 100 | ≤ 100 | ≤ 100 | ≤ 100 | ≤ 100 | O=C(NC(c1ccccn1)C1CCCC1)c1ccc2[nH]nc(-c3ccc(N4CC5(COC5)C4)cc3)c2c1 (stereo not drawn) [Example A7, 3-(4-(2-Oxa-6-azaspiro[3.3]heptan-6-yl)phenyl)-N-(cyclopentyl(pyridin-2-yl)methyl)-1H-indazole-5-carboxamide] |
| ≤ 100 | 100 to 500 | ≤ 100 | ≤ 100 | 100 to 500 | O=C(N[C@H](c1ccccc1)C1CC1)c1ccc2[nH]nc(-c3ccc(N4CC5(COC5)C4)cc3)c2c1 [Example A10, 3-(4-(2-Oxa-6-azaspiro[3.3]heptan-6-yl)phenyl)-N-((S)-cyclopropyl(phenyl)methyl)-1H-indazole-5-carboxamide] |
| ≤ 100 | ≤ 100 | ≤ 100 | ≤ 100 | ≤ 100 | O=C(N[C@H](c1ccccn1)C1CCCC1)c1ccc2[nH]nc(-c3ccc(N4CC5(CCO5)C4)cc3)c2c1 [Example A20, (S)-3-(4-(1-oxa-6-azaspiro[3.3]heptan-6-yl)phenyl)-N-(cyclopentyl(pyridin-2-yl)methyl)-1H-indazole-5-carboxamide] |
| ≤ 100 | 100 to 500 | ≤ 100 | ≤ 100 | 100 to 500 | Cc1ccccc1C(NC(=O)c1ccc2[nH]nc(-c3ccc(N4CC5(COC5)C4)cc3)c2c1)C1CC1 (stereo not drawn) [Example A3, 3-(4-(2-Oxa-6-azaspiro[3.3]heptan-6-yl)phenyl)-N-(cyclopropyl(o-tolyl)methyl)-1H-indazole-5-carboxamide] |
| ≤ 100 | ≤ 100 | ≤ 100 | ≤ 100 | 100 to 500 | O=C(N[C@H](c1ccccn1)C1CCCC1)c1ccc2[nH]nc(-c3ccc(N4CC5(CCOCC5)C4)cc3)c2c1 [Example A19, (S)-3-(4-(7-Oxa-2-azaspiro[3.5]nonan-2-yl)phenyl)-N-(cyclopentyl(pyridin-2-yl)methyl)-1H-indazole-5-carboxamide] |
| ≤ 100 | ≤ 100 | ≤ 100 | ≤ 100 | ≤ 100 | CC(C)C(NC(=O)c1ccc2[nH]nc(-c3ccc(N4CC5(COC5)C4)cc3)c2c1)c1ccccc1Cl (stereo not drawn) [Example A11, 3-(4-(2-Oxa-6-azaspiro[3.3]heptan-6-yl)phenyl)-N-(1-(2-chlorophenyl)-2-methylpropyl)-1H-indazole-5-carboxamide] |
| ≤ 100 | ≤ 100 | ≤ 100 | ≤ 100 | ≤ 100 | CC(C)[C@H](NC(=O)c1ccc2[nH]nc(-c3ccc(N4CC5(CC(O)C5)C4)cc3)c2c1)c1ccccc1Cl [Example A32, (S)-N-(1-(2-Chlorophenyl)-2-methylpropyl)-3-(4-(6-hydroxy-2-azaspiro[3.3]heptan-2-yl)phenyl)-1H-indazole-5-carboxamide] |
